Assay: gradient 5% acetonitrile 3 min, to 50% in 2 min, to 85% in 15 min, held 3 min, 100 µL/min
Settings: column: Zorbax Extend-C18 2.1 x 50 mm; eluents: water / acetonitrile, 0.1% formic acid
In short: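 Over 3 months, pure standards in mixtures of ~100 molecules were run by HPLC coupled to a quadrupole time-of-flight mass spectrometer in positive and negative ionization mode. The column was a Zorbax Extend-C18 (2.1 × 50 mm, 1.8 μm) at 100 μL/min, eluted with water and acetonitrile each holding 0.1% formic acid, with 40 μL dead and 900 μL dwell volumes. Retention time was determined from adduct peaks chosen by software and checked manually.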

RP-LC retention time | SMILES
862 s | O=c1c2nc(-c3ccc(F)cc3F)cn2ccn1-c1ccc(F)cc1
683 s | O=C(NCc1ccco1)C1CCN(c2nc3cccnc3s2)CC1
1060 s | O=C(NC1CCCCCCC1)C1CCCN(C(=O)Cc2cccc3ccccc23)C1 (configuration not stated)
657 s | O=C(O)c1nnn(-c2ccccc2)c1-c1ccccn1
882 s | O=C(NC1CCCCC1)N1CCc2nc(-c3ccc(F)cc3)ncc2C1
1090 s | Cn1nc(-c2nnc(-c3ccc(F)cc3)o2)c2c1CCN(S(=O)(=O)c1ccc3c(c1)CCCC3)C2
927 s | CSc1nc2ccc3nc(NC(=O)c4cnccn4)sc3c2s1
743 s | COC(=O)c1c(C)[nH]c(C(=O)N2CCC(CC(=O)NCc3ccccc3F)CC2)c1C
1240 s | Cc1ccc(-c2noc(C3CCCN3S(=O)(=O)c3ccc(F)c(Cl)c3)n2)cc1 (configuration not stated)
978 s | CC1CCN(C(=O)C2=CN(c3ccc(N(C)C)cc3)c3ccccc3S2(=O)=O)CC1
666 s | CCN(CC)CCNC(=O)C1CCN(C2=NS(=O)(=O)C(c3ccc(C)c(C)c3)=C2C)CC1
675 s | Cc1cccc(CNC(=O)c2cn3cccc(C)c3n2)c1
686 s | COCCn1cc(CCNC(=O)Nc2c(C)cccc2C)c2cccnc21
662 s | COc1nn(C)cc1C(=O)NCc1cc(-c2cccs2)on1
598 s | Cc1ccc(-c2nc3cnccn3c2NCCC(=O)N2CCC(N3CCCCC3)CC2)cc1
1040 s | [N-]=[N+]=Nc1ccc2c(c1)Sc1ccccc1N2CCCCN1CCN(Cc2ccc(C(=O)c3ccccc3)cc2)CC1
939 s | COc1ccc(-c2csc(Nc3ccc(S(=O)(=O)Nc4cc(C)on4)cc3)n2)cc1
638 s | CCn1c(=O)c(=O)n(CC(=O)NCCc2ccco2)c2cccnc21

RP-LC retention time | SMILES
1040 s | CCn1cc(C2=CCN(S(=O)(=O)c3cccc(C)c3)CC2)c2cccnc21
615 s | CC(=O)c1sc(NC(=O)c2c[nH]c3ccccc3c2=O)nc1C
637 s | Cc1cc(N2CCN(C(=O)Nc3ccc4c(c3)OCO4)CC2)nc(N2CCCC2)n1
604 s | Cc1ccc(CNC(=O)c2cn3c(n2)CCCC3)cc1
779 s | Cc1ccc(NC(=O)N2C[C@@H](F)C[C@H]2C(=O)N2CCCCC2)c(Cl)c1
628 s | CCOC(=O)Nc1ccc2c(c1)CN(C(C)=O)CC2
875 s | O=C1Cc2ccccc2N1c1c(Cl)cccc1Cl
1160 s | Cc1ccc(NC(=O)N2CCc3nc(-c4ccc(Cl)cc4)ncc3C2)cc1C
661 s | CC(C)NC(=O)CSC1CCc2ccccc2NC1=O (configuration not stated)
697 s | C[C@H](Nc1ncnc2nc[nH]c12)c1cc2cccc(Cl)c2c(=O)n1-c1ccccc1
854 s | Cc1ccc(CNC(=O)C2CCN(S(C)(=O)=O)c3ccccc3O2)cc1 (configuration not stated)
680 s | O=C(NCCn1c(=O)n(Cc2ccccc2)c2cccnc21)c1cnccn1
765 s | Cc1ccc(-n2nc(C)c(S(=O)(=O)Nc3ccc(S(N)(=O)=O)cc3)c2C)cc1
704 s | O=C(c1cccs1)N1CCCC1c1nc(-c2ccccc2)n[nH]1 (configuration not stated)
880 s | Cc1ccc(NC(=O)C2CCc3nc(N4CCOCC4)ncc3C2)cc1Cl (configuration not stated)
939 s | Cc1nc(-c2csc(S(=O)(=O)N3CCCC(C(=O)N(C)Cc4ccccc4)C3)c2)no1 (configuration not stated)
572 s | COC(=O)c1c(NC(C)c2cccnc2)c2cccc(Cl)c2[nH]c1=O (configuration not stated)
749 s | CC(NC(=O)C(=O)NCC1CCN(C(=O)NC(C)(C)C)CC1)c1ccccc1 (configuration not stated)

SMILES | RP-LC retention time
Fc1ccc(-c2ccc(CNC3CN4CCC3CC4)o2)cc1 (configuration not stated) | 558 s

Reference: the METLIN SMRT retention time set (Domingo-Almenara et al. 2019)
